# Assay results from US9988430B2, “Stable GLP-1 based GLP-1/glucagon receptor co-agonists” (Novo Nordisk A/S, priority 2014, dated 2018).
# *1 amine or outer side, *2 acyl side, *3 side chain or, on linkers, in order; H or OH if unused. Where a SMILES comes first, the peptide text is derived from it. Bridges are numbered along the chain shown (N, C = ends). Roman numbers before positions name the chains, in order. [ ]: non-standard residue; d: D form. The star is where a group is joined. C18 diacid = O=C(O)CCCCCCCCCCCCCCCCC(=O)*; γGlu = O=C(O)[C@H](CCC(=O)[*:2])N[*:1]; Desaminohistidyl = O=C(CCc1c[nH]cn1)*; Aib = CC(C)(N)C(=O)O
# Target: T1, human glucagon receptor (Homo sapiens, UniProt P47871)
# T1 construct: expressed in transfected cells; host or cells: membranes of BHK cells, clone BHK hGCGR A3*25
# T1 sequence (P47871 26-477): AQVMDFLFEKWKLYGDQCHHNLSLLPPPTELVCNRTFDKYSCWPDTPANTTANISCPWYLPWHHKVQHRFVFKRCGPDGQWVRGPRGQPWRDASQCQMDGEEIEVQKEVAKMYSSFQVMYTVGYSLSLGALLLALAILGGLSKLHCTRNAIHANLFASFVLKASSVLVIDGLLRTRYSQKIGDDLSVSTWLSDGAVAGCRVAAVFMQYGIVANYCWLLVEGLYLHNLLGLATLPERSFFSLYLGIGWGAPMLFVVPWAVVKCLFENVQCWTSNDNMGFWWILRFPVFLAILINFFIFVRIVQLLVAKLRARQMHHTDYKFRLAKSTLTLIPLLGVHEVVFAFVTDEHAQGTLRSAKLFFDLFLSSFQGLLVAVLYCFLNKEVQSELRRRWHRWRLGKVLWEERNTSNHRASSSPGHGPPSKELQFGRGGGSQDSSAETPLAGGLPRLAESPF
# Assay: Assay (I)(b): glucagon receptor potency, CRE luciferase reporter gene assay in BHK cells
# Assay type: cell-based
# Details: BHK cells expressing human glucagon receptor, read-out: EC50 GlucagonR
# Method: Assay (I): GLP-1 and Glucagon Receptor Potency The purpose of this example was to test the activity or potency, of the GLP-1 derivatives of the invention, in vitro. The in vitro potency is the measure of human GLP-1 receptor (GLP-1R) or glucagon receptor (glucagonR) activation, respectively, in a whole cell assay. In vitro potency was determined by measuring the cellular response of human GLP-1 or glucagon receptor activation, respectively, in a reporter gene assay. The assay was performed in a BHK cell line that stably expresses either the human GLP-1 receptor or the human glucagon receptor and comprises the DNA for the cAMP response element (CRE) coupled to a promoter and the gene for firefly luciferase (CRE luciferase). […] When assay incubation was completed, the luciferase substrate (luciferin) was added and the enzyme converted luciferin to oxyluciferin and produces bioluminescence. The luminescence was measured as the readout for the assay. […] The cells were counted and adjusted to 5×10EE3 cells/50 μl (1×10EE5 cells/ml) in Assay Medium. […] Each assay plate was read in a Perkin Elmer TopCount NXT instrument. […] EC50 values were calculated by the software and reported in pM.
smiles,measurement,value
"CC[C@H](C)[C@H](NC(=O)[C@H](Cc1ccccc1)NC(=O)[C@H](CCC(=O)O)NC(=O)[C@H](CCCNC(=N)N)NC(=O)[C@H](C)NC(=O)[C@H](C)NC(=O)[C@H](CCC(N)=O)NC(=O)CNC(=O)[C@H](CCC(=O)O)NC(=O)[C@H](CC(C)C)NC(=O)[C@H](Cc1ccc(O)cc1)NC(=O)[C@H](CCCNC(=N)N)NC(=O)[C@H](CO)NC(=O)[C@@H](NC(=O)[C@H](CC(=O)O)NC(=O)[C@H](CO)NC(=O)[C@@H](NC(=O)[C@H](Cc1ccccc1)NC(=O)[C@@H](NC(=O)CNC(=O)[C@H](Cc1c[nH]cn1)NC(=O)C(C)(C)NC(=O)CCc1c[nH]cn1)[C@@H](C)O)[C@@H](C)O)C(C)C)C(=O)N[C@@H](C)C(=O)N[C@@H](Cc1c[nH]c2ccccc12)C(=O)N[C@@H](CC(C)C)C(=O)N[C@@H](CC(C)C)C(=O)N[C@@H](CCCCNC(=O)CNC(=O)[C@H](CO)NC(=O)[C@H](CCC(=O)O)NC(=O)CNC(=O)[C@H](CO)NC(=O)CC[C@H](NC(=O)CC[C@H](NC(=O)CCCCCCCCCCCCCCCCC(=O)O)C(=O)O)C(=O)O)C(=O)N[C@H](C(N)=O)[C@@H](C)O [Example 8, N^ε34-[2-[[(2S)-2-[[(2S)-4-carboxy-2-[[2-[[(2S)-2-[[(4S)-4-carboxy-4-[[(4S)-4-carboxy-4-(17-carboxyheptadecanoylamino)butanoyl]amino]butanoyl]amino]-3-hydroxypropanoyl]amino]acetyl]amino]butanoyl]amino]-3-hydroxypropanoyl]amino]acetyl]-[Imp7,Aib8,His9,Arg18,Arg26,Leu33,Thr35]-GLP-1-(7-35)-peptide amide] (I: Desaminohistidyl-[Aib]HGTFTSDVSRYLEGQAAREFIAWLLKT-NH2 / II: {C18 diacid-γGlu-γGlu}-SGESG; amide I:27-II:C)",EC50,143 pM
